Data reported in US20060223729A1, “Photodynamic inactivation of bacterial spores” (priority 2003, published 2006).

Key:
[1] = system: B. cereus spores; test: Photodynamic inactivation (PDI) of B. cereus spores, colony-forming units; type: cell-based, B. cereus (ATCC14579); details: for photodynamic killing of spores: 100 mW/cm^2 appropriate wavelength light, 0 to 32 J/cm^2 (FIG. 5, FIG. 8)
Description: (§1) The bacteria studied in the following examples were B. atrophaeus (ATCC 9372), B. cereus (ATCC14579), B. thuringiensis (ATCC 33740) and B. subtilis (ATCC 6051). Growing bacterial cells were cultivated in brain-heart infusion (BHI) broth at 37° C. Aliquots of the suspension (10^8/mL) were stored at −80° C. and then used for the experiments.
(§2) For initial experiments spores of B. atrophaeus and B. cereus were purchased from SGM Biotech, Inc (Bozeman, Mont., USA). For subsequent experiments spores of all species were prepared in the laboratory using sporulation broth for B. atrophaeus and B. subtilis, or sporulation agar (Caipo et al., 2002; Nicholson & Setlow, 1990) for B. cereus and B. thuringiensis. The sporulation medium consisted of 16.0 g nutrient broth (Difco), 2.0 g KCl, 0.5 g MgSO4; 17 g of agar. The pH of the medium was adjusted to 7, then autoclaved and cooled. After cooling 1 ml of 1M […], 1 ml of 0.1 M MnCl2.4H2O, 1 ml of 1 mM FeSO4 and 2 ml 50% glucose were added. For spore purification the mixture of spores and cells was centrifuged at 1300 g for 20 min, washed with SX volume 1 M KCl/0.5 M NaCl, rinsed with sterile deionized water, then washed with 1 M NaCl, and rinsed with sterile deionized water again. Lysozyme (50 μg/mL) was added in the presence of buffer (5× volume Tris Cl, 0.05 M, pH 7 2), and incubated with constant stirring at 4° C. overnight. Lysozyme was removed by centrifuging 8 times (at 1300 g) and washing with sterile deionized water. Spores were frozen with 10% glycerol and stored until use. To avoid germination spores were used immediately after defrosting.
(§3) As photosensitizers Rose Bengal, Toluidine Blue O (TBO), Methylene Blue, New Methylene Blue N zinc chloride double salt (NMB), 1,9-Dimethylmethylene Blue Chloride (Sigma-Aldrich—DMMB), Azure A, Azure B, Azure C, methylene violet 3RAX, safranine O, and malachite green, were used. Stock solutions were prepared in water and stored at 4° C. in the dark before use. The concentrations of stock solution were 2 mM.
(§4) When Rose Bengal was used, irradiation was performed with an argon laser at 514 nm. A diode laser with wavelength 670 nm was used for experiments with Methylene Blue and 1,9-Dimethylmethylene Blue Chloride. Diode laser with wavelength 635 nm was used for Toluidine Blue O and New Methylene Blue N. For other dyes either a turnable argon ion pumped dye laser or a 514 nm argon ion laser was used.
(§5) Suspensions of spores or bacteria (10^8/mL, 10^7/mL, 10^6/mL) were incubated with photosensitizers in the dark at room temperature. Incubation time was ranged from 1 min to 24 h and the photosensitizer concentrations varied form 10 μM to 1 mM. The cell suspensions were centrifuged at 20800 g and then washed several times with sterile PBS. The bacterial suspensions were placed on two well (concavities hanging drop) slides (Fisher Scientific) and irradiated with appropriate laser at room temperature. Fluences ranged from 0 to 300 J/cm^2. Fluence rates varied from 0 to 500 mW/cm^2. During irradiation aliquots of 20 μL were taken to determine the colony-forming units. The contents of the wells were mixed before sampling. The aliquots were serially diluted 10-fold in PBS to give dilutions of 10^−1-10^−6 times the original concentrations and were streaked horizontally on square BHI agar plates as described by (Jett et al., 1997). Plates were incubated at 37° C. overnight.
(§6) Two types of control conditions were used: irradiation in the absence of photosensitizers and incubation with photosensitizers in the dark.

[2] = system: B. thuringiensis spores; test: Photodynamic inactivation (PDI) of B. thuringiensis spores, colony-forming units; type: cell-based, B. thuringiensis (ATCC 33740); details: 100 μM, 1 hour, 100 mW/cm^2 appropriate wavelength light, 0 to 32 J/cm^2 (FIG. 9, FIG. 10)
Description: as §1, §2, §3, §4, §5, §6

[3] = system: B. subtilis vegetative cells; test: Photoinactivation of B. subtilis vegetative cells; type: cell-based, B. subtilis (ATCC 6051); details: 10(7)/mL, 3 hours at 37° C., 100 mW/cm^2 635-nm light (FIG. 13)
Description: as §1
as §5, with “overnight. […]” for “overnight.”

[4] = system: B. subtilis spores; test: Photodynamic inactivation (PDI) of B. subtilis spores, colony-forming units; type: cell-based, B. subtilis (ATCC 6051); details: needs ten times the dye and six times the light of B. cereus and B. thuringiensis; 100 mW/cm^2 635-nm light (FIG. 3)
Description: as §1
as §2, with “Lysozyme was removed by centrifuging 8 times (at 1300 g) and washing with sterile deionized water. Spores were frozen with 10% glycerol and stored until use. To avoid germination spores were used immediately after defrosting.” left out

[5] = system: B. cereus vegetative cells; test: Photoinactivation of B. cereus vegetative cells; type: cell-based, B. cereus (ATCC14579); details: 10(7)/mL, 3 hours at 37° C., 100 mW/cm^2 635-nm light (FIG. 13)
Description: as §1
as §5, with “overnight. […]” for “overnight.”

Compound	photodynamic killing of spores ([1]; 100 μM, 1 hour)	photodynamic killing of spores [2]	also measured
CNc1ccc2nc3ccc(=[N+](C)C)cc-3sc2c1.[Cl-] [Azure B]	effective	effective	
New Methylene Blue N zinc chloride double salt [NMB]	effective	effective	
Cc1cc2nc3cc(C)c(N)cc3[n+](-c3ccccc3)c2cc1N.[Cl-] [safranin O, safranine O]	effective		
CN(C)c1ccc2nc3ccc(=[N+](C)C)cc-3sc2c1 [methylene blue, Methylene Blue]	effective		
CCN(CC)c1ccc2nc3ccc(N)cc3[n+](-c3ccccc3)c2c1.[Cl-] [methylene violet 3RAX]	effective		
Cc1cc(N(C)C)cc2[s+]c3cc(N(C)C)cc(C)c3nc12.[Cl-] [DMMB, 1,9-Dimethylmethylene Blue Chloride]		effective	effect of incubation time on effectiveness of killing ([1]; 50 μM DMMB, 1 minute to 24 hours incubation, 670 nm light (FIG. 7)): effectiveness of killing increases with increasing incubation time; killing of spores in PDI ([1]; DMMB, 670 nm light (FIG. 7)): effective
CNc1ccc2nc3ccc(N)cc3[s+]c2c1.[Cl-] [Azure C]	effective	effective	rank of potency among the dyes of FIG. 5 ([1]; 100 μM, 1 hour, 100 mW/cm^2 (FIG. 5)): most potent
Cc1cc2nc3ccc(N(C)C)cc3[s+]c2cc1N.[Cl-] [TBO, Toluidine Blue O]		effective	sensitivity of vegetative cells to PDI [3]: sensitive to PDI; killing of spores as a function of concentration and light fluence ([1]; 10 μM, 100 μM or 1 mM, 10 minutes, 100 mW/cm^2 635-nm light (FIG. 2)): improved, depending on both TBO concentration and light fluence; most effective incubation period ([1]; 50 μM TBO (FIG. 6)): ≥ 3 h; effect of incubation time on effectiveness of killing ([1]; 50 μM TBO, 1 minute to 24 hours incubation (FIG. 6)): effectiveness of killing increases with increasing incubation time; spores killed ([1]; 100 μM, 10 minutes incubation, 100 mW/cm^2 635-nm light (FIG. 1)): greater than 99.9%; killing of spores at the first lowest light dose tested ([1]; 1 mM dose, 10 minutes, 100 mW/cm^2 635-nm light (FIG. 2)): complete killing; dark toxicity to spores ([1]; 1 mM dose, 10 minutes, no light (FIG. 2)): significant dark toxicity; killing of spores [4]: more than 99.9%; sensitivity of vegetative cells to PDI [5]: sensitive to PDI
CN(C)c1ccc(C(=C2C=CC(=[N+](C)C)C=C2)c2ccccc2)cc1 [malachite green]	effective		
CN(C)c1ccc2nc3ccc(N)cc3[s+]c2c1.[Cl-] [Azure A]	effective	effective	
